pKd: −log10 of the molar value.

Experiment [1] deals with T1, LecBPA7 (Pseudomonas paraeruginosa, UniProt A6V267). The experiment is described as follows: ITC. The class given is binding. The arrangement: gene PSPA7_1769; recombinant LecBPA7.
Experiment [2] addresses T1, LecBPA7. The experiment is described as follows: X-ray crystal structure ([…] Å) and ITC. It counts as binding. The arrangement: gene PSPA7_1769; recombinant LecBPA7, 114 amino acids, tetramer.

T1 sequence (A6V267 entry or part of it): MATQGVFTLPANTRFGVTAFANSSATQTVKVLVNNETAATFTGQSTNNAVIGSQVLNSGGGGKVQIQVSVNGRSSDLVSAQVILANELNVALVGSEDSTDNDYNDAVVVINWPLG

As for `CO[C@@H]1O[C@@H](C)[C@@H](O)[C@@H](O)[C@@H]1O` [FucOMe, methyl α-L-fucoside], the negative-log Kd (pKd) on LecBPA7 [1] was 5.66.

Take `CO[C@H]1O[C@H](CO)[C@@H](O)[C@H](O)[C@@H]1O` [ManOMe, methyl α-D-mannoside]: the negative-log Kd (pKd) at LecBPA7 [1] was 4.14.

As to `CC(=O)N[C@H]1[C@H](O[C@H]2[C@@H](O)[C@@H](CO)OC(O)[C@@H]2O)O[C@H](CO)[C@@H](O[C@@H]2O[C@@H](C)[C@@H](O)[C@@H](O)[C@@H]2O)[C@@H]1O[C@@H]1O[C@H](CO)[C@H](O)[C@H](O)[C@H]1O` (stereo partly drawn) [Lewis^a tetrasaccharide], on LecBPA7 [2], the pKd is 5.70.

Usually pKd stands for the Kd on a negative log10 scale, so that one unit is a factor of ten.

(Values after paper PMC4885879, “Genomic Rearrangements and Functional Diversification of lecA and lecB Lectin-Coding Regions Impacting the Efficacy of Glycomimetics Directed against Pseudomonas aeruginosa” (Frontiers in Microbiology, 2016).)
